{"source": "patent US20230146455A1", "about": "“TREATMENT OF INFLAMMATORY DISEASES WITH PEPTIDES AND PHARMACEUTICAL COMPOSITIONS” (Yuyu Pharma, Inc., priority 2020, published 2023)", "assay_type_in_all_cases": "cell-based, human", "key": {"IL-8/CXCL8": {"system": "IL-8/CXCL8", "test": "Example 8 main study Luminex, LPS hPBMCs: IL-8/CXCL8", "conditions": "for IL-8/CXCL8 Concentration: single replicates (1st, 2nd, 3rd)", "experimental": "(§1) Human PBMCs were pretreated with YY-101, YDE-011, YDE-043 or reference compound; Xiidra® at various concentration (ranging from […] to 500 nM) for 2 h before stimulation. An equal volume of 0.5% DMSO was used as a vehicle control. Then, the cells were treated with LPS at 5 ug/ml, which was selected based on the pilot study. The supernatants from treated cells were harvested at 24 h and placed in a 96 well for Luminex cytokine & chemokine profiling using a Luminex 200 multiplex assay (Luminex; R&D system, USA).\n(§2) The main study arm with triplicate wells per group in a 24-well plate: • 1. Blank • 2. PBMC: 0.5% DMSO • 3. PBMC+LPS (5 ug/ml) • 4. PBMC+YY-101 500 nM • 5. PBMC+YY-101 50 nM • 6. PBMC+YY-101 5 nM • 7. PBMC+YY-101 0.5 nM • 8. PBMC+LPS (5 ug/ml)+Xiidra® 500 nM • 9. PBMC+LPS (5 ug/ml)+Xiidra® 50 nM • 10. PBMC+LPS (5 ug/ml)+Xiidra® 5 nM • 11. PBMC+LPS (5 ug/ml)+Xiidra® 0.5 nM • 12. PBMC+LPS (5 ug/ml)+Xiidra® 0.05 nM • 13. PBMC+LPS (5 ug/ml)+Xiidra® 0.005 nM • 14. PBMC+LPS (5 ug/ml)+YY-101 500 nM • 15. PBMC+LPS (5 ug/ml)+YY-101 50 nM • 16. PBMC+LPS (5 ug/ml)+YY-101 5 nM • 17. PBMC+LPS (5 ug/ml)+YY-101 0.5 nM • 18. PBMC+LPS (5 ug/ml)+YY-101 0.05 nM • 19. PBMC+LPS (5 ug/ml)+YY-101 0.005 nM • 20. PBMC+LPS (5 ug/ml)+YDE-011 500 nM • 21. PBMC+LPS (5 ug/ml)+YDE-011 50 nM • 22. PBMC+LPS (5 ug/ml)+YDE-011 5 nM • 23. PBMC+LPS (5 ug/ml)+YDE-011 0.5 nM • 24. PBMC+LPS (5 ug/ml)+YDE-011 0.05 nM • 25. PBMC+LPS (5 ug/ml)+YDE-011 0.005 nM • 26. PBMC+LPS (5 ug/ml)+YDE-043 500 nM • 27. PBMC+LPS (5 ug/ml)+YDE-043 50 nM • 28. PBMC+LPS (5 ug/ml)+YDE-043 5 nM • 29. PBMC+LPS (5 ug/ml)+YDE-043 0.5 nM • 30. PBMC+LPS (5 ug/ml)+YDE-043 0.05 nM • 31. PBMC+LPS (5 ug/ml)+YDE-043 0.005 nM\n(§3) Multiplex assay was used to measure 30 cytokines and chemokines. The 1:200 diluted cell supernatant and serial dilution of the standard were dispensed into a 96 well plate at 50 ul/well. Then, the pre-mixed cocktail of antibody-coated magnetic beads was dispensed at 50 ul/well and incubated at room temperature for 2 h in a horizontal orbital microplate shaker at 800±500 rpm. The beads were washed using a magnetic device to prevent loss. The biotin-antibody was dispensed in 50 ul of each well and incubated at room temperature for 1 h in a shaker at 800±500 rpm. After washing, streptavidin-PE was added at 50 ul/well and incubated at room temperature for 30 min in a shaker under the same conditions. Finally, after washing, wash buffer (100 ul/well) was added to the plate and incubated in a shaker for 2 min. The Luminex™ 200 setting were set according to the manufacturer's protocol. The data was calculated with a standard five-parameter logistic nonlinear regression analysis of the data (xPonent software 4.2, USA). Results were presented as concentration (ng/ml or pg/ml)."}, "IL-10": {"system": "IL-10", "test": "Example 8 main study Luminex, LPS hPBMCs: IL-10", "conditions": "for IL-10 Concentration: individual replicates; for IL-10 Concentration (pg/ml), Mean: mean of replicates", "experimental": "as §1, §2, §3"}, "MMP-3": {"system": "MMP-3", "test": "Example 8 main study Luminex, LPS hPBMCs: MMP-3", "conditions": "for MMP-3 Concentration: single replicates", "experimental": "as §1, §2, §3"}, "[1]": {"conditions": "PBMC + LPS(5 ug/ml) + test article 0.005 nM"}, "[2]": {"conditions": "PBMC + LPS(5 ug/ml) + test article 0.05 nM"}, "[3]": {"conditions": "PBMC + LPS(5 ug/ml) + test article 0.5 nM"}, "[4]": {"conditions": "PBMC + LPS(5 ug/ml) + test article 5 nM"}, "[5]": {"conditions": "PBMC + LPS(5 ug/ml) + test article 50 nM"}, "[6]": {"conditions": "PBMC + LPS(5 ug/ml) + test article 500 nM"}, "[7]": {"conditions": "at as low as 5 μM, LPS 5 ug/mL 24 hrs"}, "[8]": {"conditions": "PBMC + LPS(5 ug/ml) + YDE011 0.005 nM"}, "[9]": {"conditions": "PBMC + LPS(5 ug/ml) + YDE011 0.05 nM"}, "[10]": {"conditions": "PBMC + LPS(5 ug/ml) + YDE011 0.5 nM"}, "[11]": {"conditions": "PBMC + LPS(5 ug/ml) + YDE011 5 nM"}, "[12]": {"conditions": "PBMC + LPS(5 ug/ml) + YDE011 50 nM"}, "[13]": {"conditions": "PBMC + LPS(5 ug/ml) + YDE011 500 nM"}}, "note": "“And” between values parts separate entries of the source, which are not always exact repeats. Equal entries are not always repeated. Where a SMILES comes first, the peptide text is derived from it. [ ]: non-standard residue; d: D form. Hyp = O=C(O)[C@@H]1C[C@@H](O)CN1"}
{"smiles": "CC(C)C[C@H](NC(=O)CNC(=O)[C@H](CC(C)C)NC(=O)[C@H](CCC(N)=O)NC(=O)CNC(=O)[C@@H]1C[C@@H](O)CN1)C(=O)N[C@@H](C)C(=O)NCC(=O)N1CCC[C@H]1C(=O)N[C@@H](CCCCN)C(=O)O", "note": "[YDE-011] (H-[Hyp]GQLGLAGPK-OH)", "values": [{"measurement": "IL-8/CXCL8 Concentration, Mean", "setting": "IL-8/CXCL8; [1]", "value": 54720.2, "unit": "pg/mL"}, {"measurement": "IL-8/CXCL8 Concentration", "setting": "IL-8/CXCL8; [1]", "value": "55905.6 pg/mL and 51994.7 pg/mL and 56260.2 pg/mL"}, {"measurement": "IL-8/CXCL8 Concentration, Mean", "setting": "IL-8/CXCL8; [2]", "value": 61143.7, "unit": "pg/mL"}, {"measurement": "IL-8/CXCL8 Concentration", "setting": "IL-8/CXCL8; [2]", "value": "61568.6 pg/mL and 60755.7 pg/mL and 61106.8 pg/mL"}, {"measurement": "IL-8/CXCL8 Concentration, Mean", "setting": "IL-8/CXCL8; [3]", "value": 52309.1, "unit": "pg/mL"}, {"measurement": "IL-8/CXCL8 Concentration", "setting": "IL-8/CXCL8; [3]", "value": "52927.0 pg/mL and 52269.8 pg/mL and 51730.5 pg/mL"}, {"measurement": "IL-8/CXCL8 Concentration, Mean", "setting": "IL-8/CXCL8; [4]", "value": 46534.3, "unit": "pg/mL"}, {"measurement": "IL-8/CXCL8 Concentration", "setting": "IL-8/CXCL8; [4]", "value": "45587.7 pg/mL and 43107.6 pg/mL and 50907.7 pg/mL"}, {"measurement": "IL-8/CXCL8 Concentration, Mean", "setting": "IL-8/CXCL8; [5]", "value": 46922.1, "unit": "pg/mL"}, {"measurement": "IL-8/CXCL8 Concentration", "setting": "IL-8/CXCL8; [5]", "value": "54235.8 pg/mL and 55272.7 pg/mL and 31257.8 pg/mL"}, {"measurement": "IL-8/CXCL8 Concentration, Mean", "setting": "IL-8/CXCL8; [6]", "value": 49501.9, "unit": "pg/mL"}, {"measurement": "IL-8/CXCL8 Concentration", "setting": "IL-8/CXCL8; [6]", "value": "66288.2 pg/mL and 31741.3 pg/mL and 50476.2 pg/mL"}, {"measurement": "LPS-induced IL-8 (in words)", "setting": "IL-8/CXCL8; [7]", "value": "significantly reduced"}, {"measurement": "IL-10 Concentration", "setting": "IL-10; [1]", "value": "624.7 pg/mL and 409.5 pg/mL and 531.7 pg/mL"}, {"measurement": "IL-10 Concentration (pg/ml), Mean", "setting": "IL-10; [1]", "value": 521.9, "unit": "pg/mL"}, {"measurement": "IL-10 Concentration", "setting": "IL-10; [2]", "value": "729.2 pg/mL and 611.5 pg/mL and 651.0 pg/mL"}, {"measurement": "IL-10 Concentration (pg/ml), Mean", "setting": "IL-10; [2]", "value": 663.9, "unit": "pg/mL"}, {"measurement": "IL-10 Concentration", "setting": "IL-10; [3]", "value": "409.5 pg/ml (2×) and 297.6 pg/ml"}, {"measurement": "IL-10 Concentration (pg/ml), Mean", "setting": "IL-10; [3]", "value": 372.2, "unit": "pg/mL"}, {"measurement": "IL-10 Concentration", "setting": "IL-10; [4]", "value": "181.1 pg/mL and 210.8 pg/mL and 381.9 pg/mL"}, {"measurement": "IL-10 Concentration (pg/ml), Mean", "setting": "IL-10; [4]", "value": 257.9, "unit": "pg/mL"}, {"measurement": "IL-10 Concentration", "setting": "IL-10; [5]", "value": "518.2 pg/mL and 845.0 pg/mL and <2.59 pg/mL"}, {"measurement": "IL-10 Concentration (pg/ml), Mean", "setting": "IL-10; [5]", "value": 681.6, "unit": "pg/mL"}, {"measurement": "IL-10 Concentration", "setting": "IL-10; [6]", "value": "883.3 pg/mL and <2.59 pg/mL and 225.5 pg/mL"}, {"measurement": "IL-10 Concentration (pg/ml), Mean", "setting": "IL-10; [6]", "value": 554.4, "unit": "pg/mL"}, {"measurement": "LPS-induced IL-10 (in words)", "setting": "IL-10; [7]", "value": "significantly reduced"}, {"measurement": "MMP-3 Concentration, Mean", "setting": "MMP-3; [8]", "value": 7336.4, "unit": "pg/mL"}, {"measurement": "MMP-3 Concentration", "setting": "MMP-3; [8]", "value": "7512.0 pg/mL and 7323.6 pg/mL and 7173.5 pg/mL"}, {"measurement": "MMP-3 Concentration, Mean", "setting": "MMP-3; [9]", "value": 7638.4, "unit": "pg/mL"}, {"measurement": "MMP-3 Concentration", "setting": "MMP-3; [9]", "value": "7474.3 pg/mL and 7928.9 pg/mL and 7512.0 pg/mL"}, {"measurement": "MMP-3 Concentration, Mean", "setting": "MMP-3; [10]", "value": 7136.1, "unit": "pg/mL"}, {"measurement": "MMP-3 Concentration", "setting": "MMP-3; [10]", "value": "7248.5 pg/mL and 7098.6 pg/mL and 7061.2 pg/mL"}, {"measurement": "MMP-3 Concentration, Mean", "setting": "MMP-3; [11]", "value": 6802.1, "unit": "pg/mL"}, {"measurement": "MMP-3 Concentration", "setting": "MMP-3; [11]", "value": "6282.7 pg/mL and 6800.1 pg/mL and 7323.6 pg/mL"}, {"measurement": "MMP-3 Concentration, Mean", "setting": "MMP-3; [12]", "value": 6735.1, "unit": "pg/mL"}, {"measurement": "MMP-3 Concentration", "setting": "MMP-3; [12]", "value": "7248.5 pg/mL and 7474.3 pg/mL and 5482.5 pg/mL"}, {"measurement": "MMP-3 Concentration, Mean", "setting": "MMP-3; [13]", "value": 6625.8, "unit": "pg/mL"}, {"measurement": "MMP-3 Concentration", "setting": "MMP-3; [13]", "value": "7776.9 pg/mL and 5374.6 pg/mL and 6725.8 pg/mL"}, {"measurement": "LPS-induced MMP3 (in words)", "setting": "MMP-3; [7]", "value": "significantly reduced"}]}
